The record followed here is paper PMC3507948, “Origin and Evolution of Retinoid Isomerization Machinery in Vertebrate Visual Cycle: Hint from Jawless Vertebrates” (PLoS ONE, 2012).

The structures appear in SMILES notation.

What all share (format): cell-based
One assay concerns the target T1, Lamprey LRATb (Petromyzon marinus, UniProt A0AAJ7TIF3).
T1 construct: gene LOC116947134; full-length ORF cloned from adult female lamprey RPE (852 bp PCR product), 7-glycine tract at aa 160-166; pVITRO3, expressed in HEK293-F cells
T1 sequence (A0AAJ7TIF3 1-274): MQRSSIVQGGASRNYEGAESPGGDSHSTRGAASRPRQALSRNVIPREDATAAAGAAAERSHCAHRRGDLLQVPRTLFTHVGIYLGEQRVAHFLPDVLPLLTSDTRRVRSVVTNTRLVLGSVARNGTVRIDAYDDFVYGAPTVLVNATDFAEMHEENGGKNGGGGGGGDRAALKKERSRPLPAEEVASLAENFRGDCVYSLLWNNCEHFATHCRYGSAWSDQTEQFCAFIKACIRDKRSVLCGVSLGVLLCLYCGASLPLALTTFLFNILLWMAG
Kind of assay: retinol esterification in HEK293-F cells, HPLC, retinyl esters as % of total retinoids. Conditions: with 50 µM A922500 to block endogenous DGAT1; all-trans retinol added to cells.

Assay [1] addresses T2, Ciona BCMOb (Ci-BCMO1; ci-BCO) (Ciona intestinalis, UniProt Q2PE72).
T2 construct: expressed in carotenoid-accumulating E. coli
T2 sequence (Q2PE72 1-524): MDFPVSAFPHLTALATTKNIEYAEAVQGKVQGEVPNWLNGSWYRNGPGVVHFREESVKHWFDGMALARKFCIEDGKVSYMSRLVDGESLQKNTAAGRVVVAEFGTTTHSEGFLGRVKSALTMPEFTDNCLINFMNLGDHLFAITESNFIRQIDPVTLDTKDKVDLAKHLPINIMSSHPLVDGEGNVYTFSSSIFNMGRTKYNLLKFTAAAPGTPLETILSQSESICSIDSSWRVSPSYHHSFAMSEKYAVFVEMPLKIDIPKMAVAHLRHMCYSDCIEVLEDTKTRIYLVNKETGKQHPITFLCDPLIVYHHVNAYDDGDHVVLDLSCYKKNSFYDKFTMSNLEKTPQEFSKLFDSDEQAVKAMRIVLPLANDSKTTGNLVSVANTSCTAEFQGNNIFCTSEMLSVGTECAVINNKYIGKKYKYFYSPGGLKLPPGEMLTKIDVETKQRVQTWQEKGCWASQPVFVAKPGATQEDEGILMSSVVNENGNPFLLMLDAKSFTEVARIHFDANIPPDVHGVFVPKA
Kind of assay: β-carotene loss in β-carotene-accumulating E. coli, reverse-phase HPLC. The note with it: arabinose induction; no retinal detected.

Assay [2] has as its target T3, Ciona BCMOa (Ci-RPE65) (Ciona intestinalis, UniProt Q2PE71).
T3 construct: ORF from synthetic pUC57/ciBCMOa (Genscript), cloned in pBadTOPO, expressed in carotenoid-accumulating E. coli
T3 sequence (Q2PE71 1-553): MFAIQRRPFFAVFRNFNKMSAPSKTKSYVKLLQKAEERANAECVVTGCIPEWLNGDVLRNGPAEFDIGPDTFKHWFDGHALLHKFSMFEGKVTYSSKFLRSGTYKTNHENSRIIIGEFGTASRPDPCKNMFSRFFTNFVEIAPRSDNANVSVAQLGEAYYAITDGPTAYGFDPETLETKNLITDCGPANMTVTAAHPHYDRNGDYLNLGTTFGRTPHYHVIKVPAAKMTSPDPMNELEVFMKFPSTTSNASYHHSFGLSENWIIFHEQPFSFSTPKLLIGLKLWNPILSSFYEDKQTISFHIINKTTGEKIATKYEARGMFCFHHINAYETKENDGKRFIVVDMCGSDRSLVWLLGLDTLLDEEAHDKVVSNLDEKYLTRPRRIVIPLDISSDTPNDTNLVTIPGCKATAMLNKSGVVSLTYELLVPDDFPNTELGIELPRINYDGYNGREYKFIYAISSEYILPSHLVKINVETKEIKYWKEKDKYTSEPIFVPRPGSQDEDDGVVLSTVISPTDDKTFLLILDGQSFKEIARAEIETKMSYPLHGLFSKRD
Described as above. Conditions: arabinose induction, 18 h; no retinal detected.

Assay [3] addresses T3, Ciona BCMOa (Ci-RPE65). Nature of the assay: lycopene loss in lycopene-accumulating E. coli, reverse-phase HPLC. Conditions: arabinose induction, 18 h; no retinal detected; data not shown.
In assay [4] the target is T2, Ciona BCMOb (Ci-BCMO1; ci-BCO). Described as above. Conditions: arabinose induction; no retinal detected; printed as β-carotene or lycopene.
The target of another assay is T4, Lamprey RPE65 (Petromyzon marinus, UniProt L0ATZ0).
T4 construct: pVITRO2 with bovine CRALBP, expressed in HEK293-F cells with LRAT
T4 sequence (L0ATZ0 1-537): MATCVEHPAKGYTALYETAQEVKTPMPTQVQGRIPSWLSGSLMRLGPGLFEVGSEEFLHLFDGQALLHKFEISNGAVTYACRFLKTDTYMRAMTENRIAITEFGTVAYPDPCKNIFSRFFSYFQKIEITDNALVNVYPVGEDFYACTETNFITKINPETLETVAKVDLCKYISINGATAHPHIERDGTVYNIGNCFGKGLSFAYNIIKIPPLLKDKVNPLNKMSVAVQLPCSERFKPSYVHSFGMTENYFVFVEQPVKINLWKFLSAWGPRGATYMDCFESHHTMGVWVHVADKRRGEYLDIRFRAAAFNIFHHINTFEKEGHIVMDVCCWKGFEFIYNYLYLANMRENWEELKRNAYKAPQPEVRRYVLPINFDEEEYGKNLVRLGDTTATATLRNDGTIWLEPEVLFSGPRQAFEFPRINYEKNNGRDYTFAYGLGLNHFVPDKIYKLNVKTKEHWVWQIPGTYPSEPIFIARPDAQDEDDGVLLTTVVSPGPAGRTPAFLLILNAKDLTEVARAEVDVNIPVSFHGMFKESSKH
Nature of the assay: HEK293-F minimal visual cycle assay, normal-phase HPLC of saponified retinoids. Conditions: co-expressed lamprey LRATb or bovine LRAT and bovine CRALBP; 2.5 µM all-trans retinol fed for 5 h; direct substrate is the retinyl ester formed in the cells.

Turning to `CC1=C(/C=C/C(C)=C/C=C/C(C)=C/CO)C(C)(C)CCC1` [all-trans retinol], the “retinol esterification in HEK293-F cells, HPLC, retinyl esters as % of total ret” value at Lamprey LRATb is reported as “Catalytic activity of Lamprey LRATb in HEK293F cells in the presence of specific DGAT1 inhibitor”.

For the compound `CC1=C(/C=C/C(C)=C/C=C/C(C)=C/C=C/C=C(C)/C=C/C=C(C)/C=C/C2=C(C)CCCC2(C)C)C(C)(C)CCC1` [β-carotene], the “β-carotene loss in β-carotene-accumulating E. coli, reverse-phase HPLC” value is listed as “Ciona BCMOb (ci-BCO) also demonstrated significant carotenoid cleavage activity” in assay [1] and “the amount of lycopene (data not shown) or β-carotene in induced cells decreased significantly” at Ciona BCMOa (Ci-RPE65) [2].

With `CC(C)=CCC/C(C)=C/C=C/C(C)=C/C=C/C(C)=C/C=C/C=C(C)/C=C/C=C(C)/C=C/C=C(\C)CCC=C(C)C` [lycopene], the “lycopene loss in lycopene-accumulating E. coli, reverse-phase HPLC” value was “the amount of lycopene (data not shown) or β-carotene in induced cells decreased significantly” at Ciona BCMOa (Ci-RPE65) [3] and “Quantification of β-carotene or lycopene in induced cell culture transformed with Ciona BCMOb (ci-BCO)” in assay [4].

`CC1=C(/C=C/C(C)=C/C=C\C(C)=C\CO)C(C)(C)CCC1` [11-cis retinol]: the “HEK293-F minimal visual cycle assay, normal-phase HPLC of saponified retinoids” value on Lamprey RPE65 was “Cells transfected with lamprey RPE65 and lamprey LRATb were also able to produce 11-cis retinol”.
